Tests used:
HIV-1 RT = HIV-1 RT (Human immunodeficiency virus type 1 group M subtype B, UniProt P03366); test: HIV Reverse Transcriptase Assay: Inhibitor IC50 Determination; type: biochemical; conditions: purified recombinant enzyme, poly(rA)/oligo(dT)16 template-primer, 37° C. 30 min
Experimental: HIV Reverse Transcriptase Assay: Inhibitor IC50 Determination
HIV-1 RT assay was carried out in 96-well Millipore MultiScreen MADVNOB50 plates using purified recombinant enzyme and a poly(rA)/oligo(dT)16 template-primer in a total volume of 50 μL. The assay constituents were 50 mM Tris/HCl, 50 mM NaCl, 1 mM EDTA, 6 mM MgCl2, 5 μM dTTP, 0.15 μCi [^3H] dTTP, 5 μg/ml poly (rA) pre annealed to 2.5 μg/ml oligo (dT)16 and a range of inhibitor concentrations in a final concentration of 10% DMSO. Reactions were initiated by adding 4 nM HIV-1 RT and after incubation at 37° C. for 30 min, they were stopped by the addition of 50 μl ice cold 20% TCA and allowed to precipitate at 4° C. for 30 min. The precipitates were collected by applying vacuum to the plate and sequentially washing with 3×200 μl of 10% TCA and 2×200 μl 70% ethanol. Finally, the plates were dried and radioactivity counted in a Packard TopCounter after the addition of 25 μl scintillation fluid per well. IC50's were calculated by plotting % inhibition versus log10 inhibitor concentrations.

HIV-1 = test: Anti-Viral Assay (method of Pauwels et al.); type: cell-based; conditions: Human immunodeficiency virus 1, read-out: Anti-Viral Assay
Experimental: Anti-viral assays were carried out by the method described by R. E. Pauwels et al. J. Virol. Methods 1988 20(4):309-322.

Structure (SMILES): N#Cc1cc(Cl)cc(Oc2ccc(CC(=O)Nc3ccc(S(N)(=O)=O)cc3Br)cc2Br)c1 [Compound I-50, 2-[3-Bromo-4-(3-chloro-5-cyano-phenoxy)-phenyl]-N-(2-bromo-4-sulfamoyl-phenyl)-acetamide]
- IC50 (HIV-1 RT): 13.5 nM
- melting point: 168.1 to 170.4 °C

Structure (SMILES): N#Cc1cc(Cl)cc(Oc2ccc(CC(=O)Nc3ccc(S(N)(=O)=O)cc3Cl)cc2Br)c1 [Compound I-48, 2-[3-Bromo-4-(3-chloro-5-cyano-phenoxy)-phenyl]-N-(2-chloro-4-sulfamoyl-phenyl)-acetamide]
- IC50 (HIV-1 RT): 19.1 nM
- melting point: 205 to 207.3 °C

Structure (SMILES): Cc1cc(C#N)ccc1Oc1ccc(CC(=O)Nc2ccc(S(N)(=O)=O)cc2Br)c(C)c1C [Compound I-24, N-(2-Bromo-4-sulfamoyl-phenyl)-2-[4-(4-cyano-2-methyl-phenoxy)-2,3-dimethyl-phenyl]-acetamide]
- IC50 (HIV-1 RT): 202 nM
- EC50 (HIV-1): 2.6 nM

Structure (SMILES): N#Cc1cc(Cl)cc(Oc2ccc(CC(=O)Nc3ccc(CS(N)(=O)=O)cc3)cc2Br)c1 [Compound I-49, 2-[3-Bromo-4-(3-chloro-5-cyano-phenoxy)-phenyl]-N-(4-sulfamoylmethyl-phenyl)-acetamide]
- IC50 (HIV-1 RT): 2350 nM
- melting point: 133.4 to 135.3 °C

Structure (SMILES): Cc1cc(S(N)(=O)=O)ccc1NC(=O)Cc1ccc(Oc2cc(Cl)cc(C#N)c2)c(Br)c1 [Compound I-47, 2-[3-Bromo-4-(3-chloro-5-cyano-phenoxy)-phenyl]-N-(2-methyl-4-sulfamoyl-phenyl)-acetamide]
- IC50 (HIV-1 RT): 339 nM
- melting point: 214.6 to 215.9 °C

Structure (SMILES): Cc1c(CC(=O)Nc2ccc(S(N)(=O)=O)cc2Cl)ccc(Oc2cc(Cl)cc(C#N)c2)c1C [Compound I-18, 2-[4-(3-Chloro-5-cyano-phenoxy)-2,3-dimethyl-phenyl]-N-(2-chloro-4-sulfamoyl-phenyl)-acetamide]
- IC50 (HIV-1 RT): 111 nM

Structure (SMILES): Cc1cc(S(N)(=O)=O)ccc1NC(=O)Cc1ccc(Oc2cc(C#N)ccc2Cl)c(Cl)c1 [Compound I-35, 2-[3-Chloro-4-(2-chloro-5-cyano-phenoxy)-phenyl]-N-(2-methyl-4-sulfamoyl-phenyl)-acetamide]
- IC50 (HIV-1 RT): 395 nM

Structure (SMILES): O=C(Cc1ccc(Oc2cc(Cl)ccc2Br)c(Cl)c1)Nc1ccccc1Cl [Compound I-6, 2-[4-(2-Bromo-5-chloro-phenoxy)-3-chloro-phenyl]-N-(2-chloro-phenyl)-acetamide]
- IC50 (HIV-1 RT): 170 nM

From patent US7388111B2, “Non-nucleoside reverse transcriptase inhibitors” (Roche Palo Alto LLC, priority 2005, dated 2008)
